Experimental data taken from patent US12134604B1, “1-[4,5-bis(4-chlorophenyl)-1-hexyl-1H-imidazol-2-yl]-2-naphthol as an antimicrobial compound” (KING FAISAL UNIVERSITY, priority 2023, dated 2024).

What was measured:
Type in all cases: cell-based
Details in all cases: after 10, 20, 40 and 60 minutes at all dilutions 1:100, 1:200, 1:400, 1:800 (summary in words)
Candida albicans = assay: Antimicrobial (antifungal) screening by agar dilution, Candida albicans
Procedure: (§1) The antimicrobial properties of the 1-[4,5-bis(4-chlorophenyl)-1-hexyl-1H-imidazol-2-yl]-2-naphthol was studied by the method of agar dilution. Test solutions of each compound was prepared in concentration of 1% using dimethylformamide as a solvent then they are diluted in physiological solution to obtain the final experimental dilutions 1:100, 1:200, 1:400, 1:800. The effect of these substances are compared with furacillin in a controlled study. The testing microbes used were gram positive bacteria Staphylococcus aureus, gram negative bacteria Pseudomonas aeruginosa and Escherichia coli and Candida albicans fungi were taken. The experiments used for this survey were meat-pentonlu agar (EPA) for cultivation of bacteria and Saburo environment for fungi. Each experiment used 1 ml of test solution on each plate 500 min. Add 2 drops of emulsified with microbes feel. All experimental samples were taken from the agar after 10, 20, 40, 60 minutes in the environment on the basis of Patrk planted. Bacteria were cultivated at a temperature of 37° C. for 1 day and the mushroom was kept in a thermostat for […] at a temperature of 28° C. in the. Then results were checked.

Pseudomonas aeruginosa = assay: Antimicrobial screening by agar dilution, Pseudomonas aeruginosa
Procedure: as §1

Escherichia coli = assay: Antimicrobial screening by agar dilution, Escherichia coli
Procedure: as §1

Staphylococcus aureus = assay: Antimicrobial screening by agar dilution, Staphylococcus aureus
Procedure: as §1

Measured: inhibition activity

CCCCCCn1c(-c2c(O)ccc3ccccc23)nc(-c2ccc(Cl)cc2)c1-c1ccc(Cl)cc1 [1-[4,5-bis(4-chlorophenyl)-1-hexyl-1H-imidazol-2-yl]-2-naphthol]
highest inhibition activity: all assays above
